Test results reported in PubChem BioAssay AID2060623 (Molecular Pharmacology Branch, DTP, NCI, 2025).

Tested on: 227483-062-R1-J1-PDC complex spheroids with HUVEC/MSC, viability
Experiment: Anticancer human tumor 227483-062-R1-J1-PDC patient-derived pancreatic carcinoma cell line growth inhibition [CLK]
Conditions: for IC50: curve of first compound; for viability, T/C: stronger effect = lower value
Procedure, shortened: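 Multi-cell-type spheroids combined patient-derived tumor cells with HUVEC endothelial cells and human mesenchymal stem cells. Paired agents were dosed in half-log steps down from about clinical Cmax, or from 10 microM where Cmax was unknown.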

[1] = second compound 0.0316 µM, first compound 0.0316 µM
[2] = second compound 0.0316 µM, first compound 0.1 µM
[3] = second compound 0.0316 µM, first compound 0.316 µM
[4] = second compound 0.0316 µM, first compound 1 µM
[5] = second compound 0.0316 µM, first compound 3.16 µM
[6] = second compound 0.0316 µM, first compound 10 µM
[7] = second compound 0.1 µM, first compound 0.0316 µM
[8] = second compound 0.1 µM, first compound 0.1 µM
[9] = second compound 0.1 µM, first compound 0.316 µM
[10] = second compound 0.1 µM, first compound 1 µM
[11] = second compound 0.1 µM, first compound 3.16 µM
[12] = second compound 0.1 µM, first compound 10 µM
[13] = second compound 0.316 µM, first compound 0.0316 µM
[14] = second compound 0.316 µM, first compound 0.1 µM
[15] = second compound 0.316 µM, first compound 0.316 µM
[16] = second compound 0.316 µM, first compound 1 µM
[17] = second compound 0.316 µM, first compound 3.16 µM
[18] = second compound 0.316 µM, first compound 10 µM
[19] = second compound 1 µM, first compound 0.0316 µM
[20] = second compound 1 µM, first compound 0.1 µM
[21] = second compound 1 µM, first compound 0.316 µM
[22] = second compound 1 µM, first compound 1 µM
[23] = second compound 1 µM, first compound 3.16 µM
[24] = second compound 1 µM, first compound 10 µM
[25] = second compound 3.16 µM, first compound 0.0316 µM
[26] = second compound 3.16 µM, first compound 0.1 µM
[27] = second compound 3.16 µM, first compound 0.316 µM
[28] = second compound 3.16 µM, first compound 1 µM
[29] = second compound 3.16 µM, first compound 3.16 µM
[30] = second compound 3.16 µM, first compound 10 µM
[31] = second compound 10 µM, first compound 0.0316 µM
[32] = second compound 10 µM, first compound 0.1 µM
[33] = second compound 10 µM, first compound 0.316 µM
[34] = second compound 10 µM, first compound 1 µM
[35] = second compound 10 µM, first compound 3.16 µM
[36] = second compound 10 µM, first compound 10 µM
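Note: spheroids exposed to compounds for seven days before readout.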
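Throughout, for viability, T/C: percent of DMSO vehicle control luminescence as 100% viability.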

CC(C)CC(NC(=O)C(Cc1ccccc1)NC(=O)c1cnccn1)B(O)O (stereo unspecified) + CN1CCN(c2cc(C(=O)Nc3cc4cc(-c5cnn(C)c5)ccc4cn3)ccn2)CC1
IC50 (second compound 0.0316 µM): 1.54 nM | IC50 (second compound 0.1 µM): 1.02 nM | IC50 (second compound 0.316 µM): < 0.949 nM | IC50 (second compound 1 µM): < 0.949 nM | IC50 (second compound 3.16 µM): < 0.949 nM | IC50 (second compound 10 µM): < 0.949 nM | viability, T/C (second compound 0.0316 µM, first compound 0.000949 µM): 84.2% | viability, T/C (second compound 0.0316 µM, first compound 0.003 µM): 2.58% | viability, T/C (second compound 0.0316 µM, first compound 0.00949 µM): 0.65% | viability, T/C (second compound 0.0316 µM, first compound 0.03 µM): 1.12% | viability, T/C (second compound 0.0316 µM, first compound 0.0949 µM): 0.45% | viability, T/C (second compound 0.0316 µM, first compound 0.3 µM): 0.74% | viability, T/C (second compound 0.1 µM, first compound 0.000949 µM): 53.2% | viability, T/C (second compound 0.1 µM, first compound 0.003 µM): 2.83% | viability, T/C (second compound 0.1 µM, first compound 0.00949 µM): 1.48% | viability, T/C (second compound 0.1 µM, first compound 0.03 µM): 5.65% | viability, T/C (second compound 0.1 µM, first compound 0.0949 µM): 0.4% | viability, T/C (second compound 0.1 µM, first compound 0.3 µM): 0.25% | viability, T/C (second compound 0.316 µM, first compound 0.000949 µM): 2.47% | viability, T/C (second compound 0.316 µM, first compound 0.003 µM): 3.26% | viability, T/C (second compound 0.316 µM, first compound 0.00949 µM): 0.59% | viability, T/C (second compound 0.316 µM, first compound 0.03 µM): 0.21% | viability, T/C (second compound 0.316 µM, first compound 0.0949 µM): 0.29% | viability, T/C (second compound 0.316 µM, first compound 0.3 µM): 0.75% | viability, T/C (second compound 1 µM, first compound 0.000949 µM): 3.27% | viability, T/C (second compound 1 µM, first compound 0.003 µM): 1.6% | viability, T/C (second compound 1 µM, first compound 0.00949 µM): 0.47% | viability, T/C (second compound 1 µM, first compound 0.03 µM): 2.61% | viability, T/C (second compound 1 µM, first compound 0.0949 µM): 0.34% | viability, T/C (second compound 1 µM, first compound 0.3 µM): 0.4% | viability, T/C (second compound 3.16 µM, first compound 0.000949 µM): 5.84% | viability, T/C (second compound 3.16 µM, first compound 0.003 µM): 2.27% | viability, T/C (second compound 3.16 µM, first compound 0.00949 µM): 1.43% | viability, T/C (second compound 3.16 µM, first compound 0.03 µM): 0.39% | viability, T/C (second compound 3.16 µM, first compound 0.0949 µM): 0.63% | viability, T/C (second compound 3.16 µM, first compound 0.3 µM): 1.73% | viability, T/C (second compound 10 µM, first compound 0.000949 µM): 3.7% | viability, T/C (second compound 10 µM, first compound 0.003 µM): 1.18% | viability, T/C (second compound 10 µM, first compound 0.00949 µM): 0.37% | viability, T/C (second compound 10 µM, first compound 0.03 µM): 1% | viability, T/C (second compound 10 µM, first compound 0.0949 µM): 0.3% | viability, T/C (second compound 10 µM, first compound 0.3 µM): 0.21%

CC1COCCN1c1cc(C2(S(C)(=N)=O)CC2)nc(-c2ccnc3[nH]ccc23)n1 (stereo unspecified) + CN1CCN(c2cc(C(=O)Nc3cc4cc(-c5cnn(C)c5)ccc4cn3)ccn2)CC1
IC50 (second compound 0.0316 µM): 8890 nM | IC50 (second compound 0.1 µM): 1120 nM | IC50 (second compound 0.316 µM): < 31.6 nM | IC50 (second compound 1 µM): < 31.6 nM | IC50 (second compound 3.16 µM): < 31.6 nM | IC50 (second compound 10 µM): < 31.6 nM | viability, T/C [1]: 82.8% | viability, T/C [2]: 98.1% | viability, T/C [3]: 93.7% | viability, T/C [4]: 84.6% | viability, T/C [5]: 85.3% | viability, T/C [6]: 45.8% | viability, T/C [7]: 60.5% | viability, T/C [8]: 74.2% | viability, T/C [9]: 60.2% | viability, T/C [10]: 51.9% | viability, T/C [11]: 33.3% | viability, T/C [12]: 21.7% | viability, T/C [13]: 6.08% | viability, T/C [14]: 4.49% | viability, T/C [15]: 4.56% | viability, T/C [16]: 4.4% | viability, T/C [17]: 6.8% | viability, T/C [18]: 2.88% | viability, T/C [19]: 1.88% | viability, T/C [20]: 2.55% | viability, T/C [21]: 1.66% | viability, T/C [22]: 3.91% | viability, T/C [23]: 2.05% | viability, T/C [24]: 1.59% | viability, T/C [25]: 4.44% | viability, T/C [26]: 3.71% | viability, T/C [27]: 4.61% | viability, T/C [28]: 3.67% | viability, T/C [29]: 2.93% | viability, T/C [30]: 2.93% | viability, T/C [31]: 3.62% | viability, T/C [32]: 2.17% | viability, T/C [33]: 2.15% | viability, T/C [34]: 1.98% | viability, T/C [35]: 2.16% | viability, T/C [36]: 3.07%

O=C(c1cc(Cc2n[nH]c(=O)c3ccccc23)ccc1F)N1CCN(C(=O)C2CC2)CC1 + CN1CCN(c2cc(C(=O)Nc3cc4cc(-c5cnn(C)c5)ccc4cn3)ccn2)CC1
IC50 (second compound 0.0316 µM): > 10000 nM | IC50 (second compound 0.1 µM): > 10000 nM | IC50 (second compound 0.316 µM): < 31.6 nM | IC50 (second compound 1 µM): < 31.6 nM | IC50 (second compound 3.16 µM): < 31.6 nM | IC50 (second compound 10 µM): < 31.6 nM | viability, T/C [1]: 94.6% | viability, T/C [2]: 105% | viability, T/C [3]: 129% | viability, T/C [4]: 100% | viability, T/C [5]: 121% | viability, T/C [6]: 99.7% | viability, T/C [7]: 54.3% | viability, T/C [8]: 87.4% | viability, T/C [9]: 60.1% | viability, T/C [10]: 81.2% | viability, T/C [11]: 84.4% | viability, T/C [12]: 78.9% | viability, T/C [13]: 6.03% | viability, T/C [14]: 6.34% | viability, T/C [15]: 4.67% | viability, T/C [16]: 4.91% | viability, T/C [17]: 5.89% | viability, T/C [18]: 5.77% | viability, T/C [19]: 2.77% | viability, T/C [20]: 1.94% | viability, T/C [21]: 1.82% | viability, T/C [22]: 2.7% | viability, T/C [23]: 2.26% | viability, T/C [24]: 1.69% | viability, T/C [25]: 7.27% | viability, T/C [26]: 3.78% | viability, T/C [27]: 4.39% | viability, T/C [28]: 2.51% | viability, T/C [29]: 4.57% | viability, T/C [30]: 3.8% | viability, T/C [31]: 4.72% | viability, T/C [32]: 2.86% | viability, T/C [33]: 2.33% | viability, T/C [34]: 2.8% | viability, T/C [35]: 2.43% | viability, T/C [36]: 2.26%
